Measured values published in patent US11708562B2, “Differentiation of human embryonic stem cells” (Janssen Biotech, Inc., priority 2006, dated 2023).

System: H9P33, H9P44 and H9P48 cells
Assay: Microarray analysis of definitive endoderm on MEFs vs MATRIGEL +/- Wnt-3A (Table VI)
Method: Controls for each group included cells plated on […]-coated dishes and cultured in MEF-conditioned medium or cells plated on MEFs and cultured in ES medium. All groups contained three biological replicates and each biological replicate was repeated on two separate gene chips.
Sample preparation, hybridization, and image analysis were performed according to the Affymetrix Human Genome U133 Plus 2.0 Array. Following normalization and a log transformation, data analysis was performed using OmniViz® software (MA) and […] (VizXLabs, WA). Significant differences in gene expression between the samples were evaluated using analysis of variance and an F-test with adjusted P-value (Benjamini and Hochberg correction) of ≤0.05. Only genes with a present call in at least one group were included in the analysis.

[1] = DE treatment in low serum, on MEFS
[2] = log format, DE treatment in low serum + AA on MATRIGEL

Substance: Activin A: a member of the TGFβ superfamily; growth factor (R&D Systems) used to differentiate human embryonic stem cells
- mean normalized intensity (log format), Homo sapiens glycophorin Erik STA (GPErik) gene [1]: −0.4544
- mean normalized intensity (log format), Homo sapiens growth differentiation factor 3 (GDF3), mRNA [1]: 2.875
- mean normalized intensity (log format), Homo sapiens haptoglobin (HP), mRNA [1]: 0.477
- mean normalized intensity (log format), Homo sapiens haptoglobin-related protein (HPR), mRNA [1]: −1.196
- mean normalized intensity (log format), Homo sapiens homeobox protein goosecoid mRNA, complete cds [1]: 1.894
- mean normalized intensity (log format), Homo sapiens hypothetical protein FLJ10718 (FLJ10718), mRNA [1]: 5.552
- mean normalized intensity (log format), Homo sapiens hypothetical protein FLJ10970 (FLJ10970), mRNA [1]: 3.02
- mean normalized intensity (log format), Homo sapiens hypothetical protein FLJ11316 (FLJ11316), mRNA [1]: 0.7553
- mean normalized intensity (log format), Homo sapiens hypothetical protein FLJ22252 similar to SRY-box containing gene 17 (FLJ22252), mRNA [1]: 4.5979
- mean normalized intensity (log format), Homo sapiens hypothetical protein FLJ23403 (FLJ23403), mRNA [1]: −1.004
- mean normalized intensity (log format), Homo sapiens lumican (LUM), mRNA [1]: 0.9488
- mean normalized intensity (log format), Homo sapiens mRNA for GATA-6, complete cds [1]: 5.343
- mean normalized intensity (log format), Homo sapiens mRNA for KIAA1409 protein, partial cds [1]: −1.032
- mean normalized intensity (log format), Homo sapiens mRNA; cDNA DKFZp434D0818 (from clone DKFZp434D0818) [1]: −0.3056
- mean normalized intensity (log format), Homo sapiens mRNA; cDNA DKFZp586J0624 (from clone DKFZp586J0624) [1]: 3.699
- mean normalized intensity (log format), Homo sapiens matrix metalloproteinase 14 (membrane-inserted) (MMP14), mRNA [1]: −0.09689
- mean normalized intensity (log format), Homo sapiens phorbolin-like protein MDS019 (MDS019), mRNA [1]: 2.408
- mean normalized intensity (log format), Homo sapiens presenilin stabilization factor b (PSF) mRNA [1]: 0.5675
- mean normalized intensity (log format), Homo sapiens reserved (KCNK12), mRNA [1]: 3.78
- mean normalized intensity (log format), Homo sapiens retinoid X receptor, gamma (RXRG), mRNA [1]: −0.3204
- mean normalized intensity (log format), Homo sapiens sema domain, immunoglobulin domain (Ig), short basic domain, secreted, (semaphorin) 3E (SEMA3E), mRNA [1]: 1.276
- mean normalized intensity (log format), Homo sapiens sema domain, seven thrombospondin repeats, (semaphorin) 5A (SEMA5A), mRNA [1]: 1.487
- mean normalized intensity (log format), Homo sapiens solute carrier family 16 (monocarboxylic acid transporters), member 3 (SLC16A3), mRNA [1]: 1.724
- mean normalized intensity (log format), Homo sapiens solute carrier family 21 (prostaglandin transporter), member 2 (SLC21A2), mRNA [1]: 2.433
- mean normalized intensity (log format), Homo sapiens type VI collagen alpha 2 chain precursor (COL6A2) mRNA [1]: 2.845
- mean normalized intensity (log format), Homo sapiens, alpha-1 (VI) collagen [1]: −2.269
- mean normalized intensity (log format), Homo sapiens, clone MGC: 4655, mRNA [1]: 2.476
- mean normalized intensity (log format), Human (clone 8B1) Br-cadherin mRNA [1]: −1.026
- mean normalized intensity (log format), Human (clone HSY3RR) neuropeptide Y receptor (NPYR) mRNA [1]: 5.48
- mean normalized intensity (log format), Human DNA sequence from clone RP1-181C24 on chromosome 6p11.1-12.2 (3 end of the BMP5 gene) [1]: −0.3731
- mean normalized intensity (log format), Human Fritz mRNA, complete cds [1]: 3.915
- mean normalized intensity (log format), Human dipeptidyl peptidase IV (CD26) mRNA [1]: −1.256
- mean normalized intensity (log format), Human glycophorin HeP2 mRNA, partial cds [1]: 0.2335
- mean normalized intensity (log format), Human link protein mRNA, complete cds [1]: −1.263
- mean normalized intensity (log format), Human mRNA for alpha-1 type II collagen [1]: −0.3802
- mean normalized intensity (log format), Human mRNA for apolipoprotein AI (apo AI) [1]: 2.497
- mean normalized intensity (log format), Human prostatic secretory protein 57 mRNA [1]: −0.4077
- mean normalized intensity (log format), KIAA0878 protein [1]: 4.789
- mean normalized intensity (log format), KIAA1462 protein [1]: 0.4371
- mean normalized intensity (log format), MCP-1 = monocyte chemotactic protein [1]: 2.955
- mean normalized intensity (log format), Rho GDP dissociation inhibitor (GDI) alpha [1]: −2.582
- mean normalized intensity (log format), WAS protein family, member 2 [1]: −1.06
- mean normalized intensity (log format), collagen, type IX, alpha 2 [1]: 2.935
- mean normalized intensity (log format), collagen, type VI, alpha 1 [1]: 0.6042
- mean normalized intensity (log format), glycophorin B (includes Ss blood group) [1]: −0.1297
- mean normalized intensity (log format), hepatocyte nuclear factor 4, alpha [1]: 0.4452
- mean normalized intensity (log format), homeo box HB9 [1]: 1.631
- mean normalized intensity (log format), hypothetical protein FLJ21032 [1]: 2.618
- mean normalized intensity (log format), hypothetical protein FLJ23091 [1]: 3.78
- mean normalized intensity (log format), hypothetical protein FLJ23403 [1]: −2.313
- mean normalized intensity (log format), matrix metalloproteinase 14 (membrane-inserted) [1]: −0.5185
- mean normalized intensity (log format), microfibrillar-associated protein 4 [1]: −0.6009
- mean normalized intensity (log format), myristoylated alanine-rich protein kinase C substrate (MARCKS, 80K-L) [1]: 0.3357
- mean normalized intensity (log format), neuropilin 1 [1]: −1.9667
- mean normalized intensity (log format), noggin [1]: 1.33
- mean normalized intensity (log format), phorbolin-like protein MDS019 [1]: 0.5035
- mean normalized intensity (log format), solute carrier family 16 (monocarboxylic acid transporters), member 3 [1]: 0.279
- mean normalized intensity (log format), splicing factor, arginineserine-rich 5 [1]: 4.272
- mean normalized intensity (log format), stanniocalcin 1 [1]: 6.143
- mean normalized intensity: DKFZP566K1924 protein [2]: 2.882
- mean normalized intensity: ESTs, Moderately similar to ALU2_HUMAN ALU SUBFAMILY SB SEQUENCE CONTAMINATION WARNING ENTRY (H. sapiens) [2]: 4.241
- mean normalized intensity: H. sapiens mRNA for B-HLH DNA binding protein. [2]: 5.43
- mean normalized intensity: Homo sapiens BCL2-interacting killer (apoptosis-inducing) (BIK), mRNA. [2]: 4.3
- mean normalized intensity: Homo sapiens Charot-Leyden crystal protein (CLC), mRNA. [2]: 3.301
- mean normalized intensity: Homo sapiens HES-related repressor protein 1 HERP1 mRNA, complete cds. [2]: 2.806
- mean normalized intensity: Homo sapiens HSPC156 protein (HSPC156), mRNA. [2]: 0.7862
- mean normalized intensity: Homo sapiens KIAA0469 gene product (KIAA0469), mRNA. [2]: 4.031
- mean normalized intensity: Homo sapiens PNAS-123 mRNA, complete cds [2]: 1.597
- mean normalized intensity: Homo sapiens Wilms tumor 1 (WT1), transcript variant D, mRNA. [2]: 2.405
- mean normalized intensity: Homo sapiens cDNA FLJ11398 fis, clone HEMBA1000637. [2]: 2.5268
- mean normalized intensity: Homo sapiens cDNA: FLJ22547 fis, clone HSI00356 [2]: 4.294
- mean normalized intensity: Homo sapiens cadherin 6, type 2, K-cadherin (fetal kidney) (CDH6), mRNA. [2]: 0.8248
